Laboratory results reported in ChEMBL document CHEMBL5500371, “Arginine and tryptophan-rich dendritic antimicrobial peptides that disrupt membranes for bacterial infection in vivo” (Eur J Med Chem, 2024).
Converted amounts (≈) assume the structure as drawn. Where a SMILES comes first, the peptide text is derived from it. Side-chain parts run from the residue outwards.

Assays:
[1] = system: Staphylococcus aureus; experiment: Antibacterial activity against Staphylococcus aureus ATCC 25923 assessed as inhibition of bacterial growth incubated for 20 hrs by broth microdilution method; format: functional
[2] = system: Bacillus subtilis; experiment: Antibacterial activity against Bacillus subtilis ATCC 23857 assessed as inhibition of bacterial growth incubated for 20 hrs by broth microdilution method; format: functional
[3] = system: Acinetobacter baumannii; experiment: Antibacterial activity against Acinetobacter baumannii ATCC 19606 assessed as inhibition of bacterial growth incubated for 20 hrs by broth microdilution method; format: functional
[4] = system: Klebsiella pneumoniae; experiment: Antibacterial activity against Klebsiella pneumoniae ATCC 700603 assessed as inhibition of bacterial growth incubated for 20 hrs by broth microdilution method; format: functional
[5] = system: Escherichia coli; experiment: Antibacterial activity against Escherichia coli ATCC 25922 assessed as inhibition of bacterial growth incubated for 20 hrs by broth microdilution method; format: functional
[6] = system: Pseudomonas aeruginosa; experiment: Antibacterial activity against Pseudomonas aeruginosa ATCC 27853 assessed as inhibition of bacterial growth incubated for 20 hrs by broth microdilution method; format: functional
[7] = system: Erythrocyte; experiment: Hemolytic activity in mouse erythrocytes assessed as 10% hemolysis incubated for 1 hr by absorbance based analysis; format: toxicity, cell-based
[8] = Cytotoxicity against HEK293T cells assessed as cell death measured after 1 hr by resazurin dye based analysis; format: toxicity, HEK-293T; settings: human, HEK293T cells

Molecule: N=C(N)NCCC[C@H](NC(=O)[C@H](CCCNC(=N)N)NC(=O)[C@@H](N)CCCNC(=N)N)C(=O)NCCCC[C@H](NC(=O)[C@H](CCCNC(=N)N)NC(=O)[C@H](CCCNC(=N)N)NC(=O)[C@@H](N)CCCNC(=N)N)C(=O)N[C@@H](Cc1c[nH]c2ccccc12)C(=O)N[C@@H](Cc1c[nH]c2ccccc12)C(=O)N[C@@H](Cc1c[nH]c2ccccc12)C(=O)N[C@@H](Cc1c[nH]c2ccccc12)C(=O)N[C@@H](Cc1c[nH]c2ccccc12)C(N)=O
- MIC [1]: 16 µM (≈ 32.2 µg/mL)
- MIC [2]: 8 µM (≈ 16.1 µg/mL)
- MIC [3]: 32 µM (≈ 64.4 µg/mL)
- MIC [4]: 16 µM (≈ 32.2 µg/mL)
- MIC [5]: 16 µM (≈ 32.2 µg/mL)
- MIC [6]: 16 µM (≈ 32.2 µg/mL)
- MHC10 [7]: 91.08 µM
- CC50 at 1 h [8]: 41.4 µM

Molecule: H-RRRRRRKWWWWWWW-NH2
- MIC [1]: 8 µM
- MIC [2]: 8 µM
- MIC [3]: 32 µM
- MIC [4]: 32 µM
- MIC [5]: 16 µM
- MIC [6]: 32 µM
- MHC10 [7]: 19.48 µM
- CC50 at 1 h [8]: 101 µM

Molecule: H-RRRRRRKWWWWWW-NH2
- MIC [1]: 32 µM
- MIC [2]: 8 µM
- MIC [3]: 16 µM
- MIC [4]: 32 µM
- MIC [5]: 16 µM
- MIC [6]: 64 µM
- MHC10 [7]: 24.89 µM
- CC50 at 1 h [8]: 51.5 µM

Molecule: N=C(N)NCCC[C@H](NC(=O)[C@@H](N)CCCNC(=N)N)C(=O)N[C@@H](CCCCN)C(=O)N[C@@H](Cc1c[nH]c2ccccc12)C(N)=O (H-RRKW-NH2)
- MIC [1]: > 128 µM
- MIC [2]: > 128 µM
- MIC [3]: > 128 µM
- MIC [4]: > 128 µM
- MIC [5]: > 128 µM
- MIC [6]: > 128 µM
- MHC10 [7]: > 256 µM
- CC50 at 1 h [8]: > 128 µM

Molecule: N=C(N)NCCC[C@H](NC(=O)[C@H](CCCNC(=N)N)NC(=O)[C@H](CCCNC(=N)N)NC(=O)[C@H](CCCNC(=N)N)NC(=O)[C@H](CCCNC(=N)N)NC(=O)[C@H](CCCCNC(=O)[C@H](Cc1c[nH]c2ccccc12)NC(=O)[C@H](Cc1c[nH]c2ccccc12)NC(=O)[C@@H](N)Cc1c[nH]c2ccccc12)NC(=O)[C@H](Cc1c[nH]c2ccccc12)NC(=O)[C@H](Cc1c[nH]c2ccccc12)NC(=O)[C@@H](N)Cc1c[nH]c2ccccc12)C(N)=O (H-WWWK([Trp-Trp-Trp])RRRRR-NH2)
- MIC [1]: 8 µM (≈ 16.3 µg/mL)
- MIC [2]: 8 µM (≈ 16.3 µg/mL)
- MIC [3]: 32 µM (≈ 65.4 µg/mL)
- MIC [4]: 32 µM (≈ 65.4 µg/mL)
- MIC [5]: 16 µM (≈ 32.7 µg/mL)
- MIC [6]: 32 µM (≈ 65.4 µg/mL)
- MHC10 [7]: 22.73 µM
- CC50 at 1 h [8]: 48.2 µM

Molecule: N=C(N)NCCC[C@H](NC(=O)[C@H](CCCNC(=N)N)NC(=O)[C@H](CCCNC(=N)N)NC(=O)[C@H](CCCNC(=N)N)NC(=O)[C@H](CCCNC(=N)N)NC(=O)[C@H](CCCNC(=N)N)NC(=O)[C@H](CCCNC(=N)N)NC(=O)[C@H](CCCCNC(=O)[C@H](Cc1c[nH]c2ccccc12)NC(=O)[C@H](Cc1c[nH]c2ccccc12)NC(=O)[C@@H](N)Cc1c[nH]c2ccccc12)NC(=O)[C@H](Cc1c[nH]c2ccccc12)NC(=O)[C@H](Cc1c[nH]c2ccccc12)NC(=O)[C@@H](N)Cc1c[nH]c2ccccc12)C(N)=O
- MIC [1]: 16 µM (≈ 37.7 µg/mL)
- MIC [2]: 16 µM (≈ 37.7 µg/mL)
- MIC [3]: 32 µM (≈ 75.4 µg/mL)
- MIC [4]: 64 µM (≈ 151 µg/mL)
- MIC [5]: 32 µM (≈ 75.4 µg/mL)
- MIC [6]: 16 µM (≈ 37.7 µg/mL)
- MHC10 [7]: 17.53 µM
- CC50 at 1 h [8]: 41.9 µM
